In brackets after ≈: the same amount, converted by molar mass.
Assays:
[1] = system: T1, E. coli BW25113; test: microbe, parasite or virus in culture; design: Broth dilution growth at OD600 in Ca/HEPES:YPSC, 29 °C, Gompertz-fit MIC; settings: Escherichia coli, BW25113, 24 h; Ca/HEPES:YPSC, 29 °C, non-standard MIC
T1 construct: BW25113
Method: Serial antibiotic dilutions in 100 µL Ca/HEPES were made along the rows of 96-well plates including controls without antibiotic. E. coli BW25113 cells from an overnight culture were washed and re-suspended in Ca/HEPES buffer to a final OD600 of 0.024. Aliquots of 50 µL of this E. coli suspension and 50 µL of a fresh YPSC broth were added to the wells of these plates and the blank measured at 600 nm. Final OD600 measurements were carried out after an incubation of 24 hours at 29 °C under shaking conditions. Data is shown as percentage of growth and plotted in a graph against the logarithm of antibiotic concentration. MIC values were calculated by fitting data with a Gompertz modified equation[15] (using GraphPad Prism 5). […] Antibiotics characterized by a high B. bacteriovorus/E. coli MIC ratio, such as amikacin, kanamycin, gentamicin and aztreonam (Table 1), are of particular interest for a B. bacteriovorus based co-therapy against E. coli infections.

[2] = system: T2, B. bacteriovorus HD100; test: microbe, parasite or virus in culture; design: species or system B. bacteriovorus HD100 with E. coli BW25113 prey; Predatory growth on E. coli prey, OD600 reduction, Gompertz-fit MIC by linear regression at PPR 0.02; settings: Escherichia coli, HD100, 24 h; co-culture with E. coli BW25113 prey, theoretical MIC at PPR 0.02
T2 construct: HD100
Method: Two-fold serial dilutions of antibiotics (Table S6) were made along the rows of 96-well plates (BRANDplates pureGrade^TM S, no. 781662) in 100 µL Ca/HEPES buffer (5.94 g/L HEPES free acid, 0.284 g/L calcium chloride 2·H2O, adjusted to pH 7.6 with NaOH), including controls (no antibiotic present). B. bacteriovorus cultures were diluted by a factor of 25 in Ca/HEPES buffer. B. bacteriovorus two-fold serial dilutions were prepared in a new sterile 96-well plate along the column line (using as diluent a suspension of heat-inactivated B. bacteriovorus), including controls (no viable B. bacteriovorus present). Fifty µL of these dilution series were transferred from each well of the latter plate to the corresponding wells of plates with antibiotic dilution series. Subsequently, 50 µL of an E. coli BW25113 overnight culture grown in YPSC broth was added to each plate well. At this point, which corresponds to time zero, the blank was determined by measuring the OD600 of cell suspensions in a plate reader (TECAN Infinite 200 Pro). Final OD600 measurements were carried out after an incubation of 24 hours at 29 °C under shaking conditions (300 rpm, 3 mm throw). The number of E. coli cells was estimated by reading the OD600 of the overnight culture prior to the beginning of the assay. The number of viable B. bacteriovorus cells was estimated by plating in double layer YPSC agar plates as explained elsewhere. Following an incubation time of three days at 29 °C, the number of B. bacteriovorus cells in the initial inoculation culture was estimated by counting plaque forming units (PFU). Enumeration of B. bacteriovorus by plaques count ensures that only viable cells are counted and, in our experience, is preferable over other methods based on microscopy and/or fluorescence. Pictures of plaques were acquired by the aid of a plaque visualization chamber, specially developed in this study for this purpose (Fig. S9). All absorbance values were subtracted of the related blanks. Then, absorbance values of test samples (B. bacteriovorus co-cultures) were subtracted from the control values (E. coli without B. bacteriovorus) and plotted in graph against the logarithm of antibiotic concentrations. The resulting Δ curve is an indication of B. bacteriovorus growth. Data was expressed as percentage of growth and plotted in a graph of log(inhibitor) vs. response. The minimal inhibitory concentration (MIC) value was defined as the concentration of antibiotic that prevent B. bacteriovorus growth and were calculated by fitting B. bacteriovorus growth inhibition curves with a Gompertz modified equation[15] (using GraphPad Prism 5). […] Direct cell growth measurements of B. bacteriovorus upon prey bacteria can be estimated by reduction of the optical density at 600 nm (OD600) (i.e. the loss of culture turbidity by B. bacteriovorus-induced lysis of prey cells). In this study, we designed a 96-well based method for the determination of antibiotic MICs for B. bacteriovorus. B. bacteriovorus HD100 cells were added to an E. coli culture and the reduction of OD600 measured in absence and presence of different concentrations of antibiotics. Assays were conducted in a solution of Ca/HEPES buffer and the exhausted medium transferred with the E. coli overnight culture and the B. bacteriovorus dilution. Therefore, E. coli cells were in the stationary phase and their growth during the assays was negligible. […] MIC values are dependent on the initial PPR used in the assay, as standard MIC assays are dependent on the initial bacterial concentration. However, B. bacteriovorus numbers and therefore, the initial PPR can be estimated reliably only after the assay by plating in double layer agar plates. The relation between initial PPR and MIC values was then investigated by adding different numbers of B. bacteriovorus cells to the fixed number of E. coli prey cells in parallel replicated experiments (on different rows of the same plate containing replicated antibiotic serial dilutions). […]

Row | SMILES | MIC [1] [µg/mL] | MIC [2] [µg/mL]
1 | CCN1CCN(C(=O)N[C@@H](C(=O)N[C@@H]2C(=O)N3C(C(=O)O)=C(CSc4nnnn4C)CS[C@H]23)c2ccc(O)cc2)C(=O)C1=O [Cefoperazone] | 0.6 (≈ 0.929 µM) | 1.3 ± 0.3 (≈ 2.01 µM)
2 | Cc1nnc(SCC2=C(C(=O)O)N3C(=O)[C@@H](NC(=O)Cn4cnnn4)[C@H]3SC2)s1 [Cefazolin] | 2 (≈ 4.4 µM) | 0.51 ± 0.07 (≈ 1.12 µM)
3 | CCC[C@@H]1C[C@@H](C(=O)N[C@@H]([C@H]2O[C@H](SC)[C@H](O)[C@@H](O)[C@H]2O)[C@@H](C)O)N(C)C1 [Lincomycin] |  | 7.9 ± 0.9 (≈ 19.4 µM)
4 | C[C@H]1COc2c(N3CCN(C)CC3)c(F)cc3c(=O)c(C(=O)O)cn1c23 [Levofloxacin] | 0.064 (≈ 0.177 µM) | 0.23 ± 0.02 (≈ 0.636 µM)
5 | NC[C@H]1O[C@H](O[C@H]2[C@H](O)[C@@H](O[C@H]3O[C@H](CO)[C@@H](O)[C@H](N)[C@H]3O)[C@H](N)C[C@@H]2N)[C@H](O)[C@@H](O)[C@@H]1O [Kanamycin] | 0.081 (≈ 0.167 µM) | 0.69 ± 0.06 (≈ 1.42 µM)
6 | CNC(C)[C@@H]1CC[C@@H](N)[C@@H](O[C@H]2[C@H](O)[C@@H](O[C@H]3OC[C@](C)(O)[C@H](NC)[C@H]3O)[C@H](N)C[C@@H]2N)O1 (stereo partly shown) [Gentamicin] | 0.0084 (≈ 0.0176 µM) | 0.06 (≈ 0.126 µM)
7 | CC1(C)S[C@@H]2[C@H](NC(=O)[C@H](N)c3ccccc3)C(=O)N2[C@H]1C(=O)O [Ampicillin] | 5.4 (≈ 15.5 µM) | 1.3 ± 0.2 (≈ 3.72 µM)
8 | O=C(O)c1cn(C2CC2)c2cc(N3CCNCC3)c(F)cc2c1=O [Ciprofloxacin] | 0.13 (≈ 0.392 µM) | 0.31 ± 0.04 (≈ 0.936 µM)
9 | N[C@@H](C(=O)N[C@@H]1C(=O)N2C(C(=O)O)=C(Cl)CS[C@H]12)c1ccccc1 [Cefaclor] | 10 (≈ 27.2 µM) | 18 ± 2 (≈ 48.9 µM)
10 | O=C(N[C@H](CO)[C@H](O)c1ccc([N+](=O)[O-])cc1)C(Cl)Cl [Chloramphenicol] | 10 (≈ 30.9 µM) | 0.16 (≈ 0.495 µM)
11 | CC(C)(O/N=C(\C(=O)N[C@@H]1C(=O)N2C(C(=O)[O-])=C(C[n+]3ccccc3)CS[C@H]12)c1csc(N)n1)C(=O)O [Ceftazidime] | 19 (≈ 34.8 µM) | 7.8 ± 0.4 (≈ 14.3 µM)
12 | C[C@H]1[C@H](NC(=O)/C(=N\OC(C)(C)C(=O)O)c2csc(N)n2)C(=O)N1S(=O)(=O)O [Aztreonam] | 5.7 (≈ 13.1 µM) | 41 ± 4 (≈ 94.2 µM)
13 | NCC[C@H](O)C(=O)N[C@@H]1C[C@H](N)[C@@H](O[C@H]2O[C@H](CN)[C@@H](O)[C@H](O)[C@H]2O)[C@H](O)[C@H]1O[C@H]1O[C@H](CO)[C@@H](O)[C@H](N)[C@H]1O [Amikacin] | 0.06 (≈ 0.102 µM) | 0.7 ± 0.02 (≈ 1.2 µM)

More lines, now with the values ahead:

Row | MIC [1] [µg/mL] | MIC [2] [µg/mL] | SMILES
14 | 0.14 (≈ 0.365 µM) | 0.42 ± 0.06 (≈ 1.1 µM) | C[C@@H](O)[C@H]1C(=O)N2C(C(=O)O)=C(S[C@@H]3CN[C@H](C(=O)N(C)C)C3)[C@H](C)[C@H]12 [Meropenem]
15 | 2.3 (≈ 3.93 µM) | 0.59 ± 0.01 (≈ 1.01 µM) | CN(C)c1cc(NC(=O)CNC(C)(C)C)c(O)c2c1C[C@H]1C[C@H]3[C@H](N(C)C)C(O)=C(C(N)=O)C(=O)[C@@]3(O)C(O)=C1C2=O [Tigecycline]
16 |  | 223 ± 24 (≈ 768 µM) | COc1cc(Cc2cnc(N)nc2N)cc(OC)c1OC [TMP, trimethoprim]
17 |  | 16 ± 1 (≈ 11 µM) | CN[C@H](CC(C)C)C(=O)N[C@H]1C(=O)N[C@@H](CC(N)=O)C(=O)N[C@H]2C(=O)N[C@H]3C(=O)N[C@H](C(=O)N[C@H](C(=O)O)c4cc(O)cc(O)c4-c4cc3ccc4O)[C@H](O)c3ccc(c(Cl)c3)Oc3cc2cc(c3O[C@@H]2O[C@H](CO)[C@@H](O)[C@H](O)[C@H]2O[C@H]2C[C@](C)(N)[C@H](O)[C@H](C)O2)Oc2ccc(cc2Cl)[C@H]1O [Vancomycin]
18 | 4.8 (≈ 10.8 µM) | 1.7 ± 0.2 (≈ 3.83 µM) | CN(C)[C@@H]1C(O)=C(C(N)=O)C(=O)[C@@]2(O)C(O)=C3C(=O)c4c(O)cccc4[C@@](C)(O)[C@H]3C[C@@H]12 [Tetracycline]
19 | 122 (≈ 236 µM) | 2.5 ± 0.5 (≈ 4.83 µM) | CCN1CCN(C(=O)N[C@@H](C(=O)N[C@@H]2C(=O)N3[C@@H]2SC(C)(C)[C@@H]3C(=O)O)c2ccccc2)C(=O)C1=O [Piperacillin]
20 | 19 (≈ 56.8 µM) | 3.4 ± 0.5 (≈ 10.2 µM) | CC1(C)S[C@@H]2[C@H](NC(=O)Cc3ccccc3)C(=O)N2[C@H]1C(=O)O [Penicillin G]
